{
  "source": "patent US10844023B2",
  "about": "(Washington University, priority 2017, dated 2020)",
  "key": {"Mfn2 null MEFs": {"system": "Mfn2 null MEFs", "assay": "Mitochondrial elongation (aspect ratio) fusogenicity assay", "format": "cell-based, mouse", "design": "% long compare to B: dose or concentration left out as unconfirmed", "details": "for Fusogenic activity: mitochondrial elongation / fusion; for % long compare to B: mitochondrial elongation relative to Cpd B (B01 = 100), Mfn2 null MEFs, compound overnight as printed (FIG. 48)"}, "[1]": {"assay": "Human liver microsome stability assay", "format": "in vitro ADME", "details": "human liver microsomes (FIG. 49)", "procedure": "FIG. 49 is a series of structures and a graph showing dose-response and human liver microsomal stability data for fusogenic compounds from FIG. 22. […] T1/2 values are from human liver microsome stability assay.\n(§1) Plasma protein binding was measured using equilibrium dialysis; % bound=(1-[free compound in dialysate]/[total compound in retentate])×100. Plasma stability of […] compound in clarified freeze-thawed plasma was assessed by LC-MS/MS of supernatants after protein precipitation; 120 min data are reported for studies including 0, 10, 30, 60, and 120 min. Microsome stability of […] compound in liver microsomes (0.5 mg/ml) after 0, 5, 10, 20, 30, 60 min. incubation was assessed by LC/MS/MS of reaction extracts."}, "[2]": {"assay": "Plasma protein binding (equilibrium dialysis)", "format": "in vitro ADME", "procedure": "as §1"}, "[3]": {"assay": "Liver microsome stability", "format": "in vitro ADME", "procedure": "as §1"}, "[4]": {"assay": "Solubility of library compounds in DMSO", "format": "physicochemical", "details": "stock concentration of 10 mM in DMSO", "procedure": "A pharmacophore model was generated based on the interactions of HR1 and HR2 domains in the calculated structural model of Mfn2 in the closed conformation. The key features included hydrophobic interactions involving Mfn2 HR1: Val372 and Met376, and aromatic interactions and hydrogen bonding involving Mfn2 HR1 His380. […] A library comprising ˜14 million commercially available compounds was prepared in silico and evaluated using PHASE to fit these criteria. Top ranked hits were clustered, and filtered based on pharmacological properties using Qikprop. The top 55 (see TABLE 4) commercially available small molecules conforming to the model were selected for functional screening and purchased in 1 mg aliquots. Each compound was dissolved to a stock concentration of 10 mM in DMSO and applied to Mfn2 null MEFs overnight at a final concentration of […]. Eleven of the library members were not soluble in DMSO at the required concentration. The 44 fully soluble compounds were screened in groups of 6 at a time for cytotoxicity (calcein AM/ethidium homodimer staining; ThermoFisher LIVE/DEAD Assay cat #L3224) and fusogenicity (increase in mitochondrial aspect ratio; MitoTracker Orange staining) compared to cells treated overnight with […] of the parent HR1 367-384 mitofusin agonist peptide (positive control) or vehicle (DMSO). Images were acquired by confocal microscopy. Each compound was scored for fusogenicity (see e.g., FIG. 24A) and % cell death (see e.g., FIG. 24B). Pharmacophore model fit generally correlated with actual fusogenic activity (Pearson correlation coefficient r=0.214; see e.g., FIG. 24A, inset; TABLE 4)."}, "[5]": {"assay": "Parallel artificial membrane permeability assay (PAMPA)", "format": "in vitro ADME"}, "P-gp/MDR1": {"biological_target": "P-gp/MDR1 (Homo sapiens, UniProt P08183)", "sequence (P08183 whole entry)": "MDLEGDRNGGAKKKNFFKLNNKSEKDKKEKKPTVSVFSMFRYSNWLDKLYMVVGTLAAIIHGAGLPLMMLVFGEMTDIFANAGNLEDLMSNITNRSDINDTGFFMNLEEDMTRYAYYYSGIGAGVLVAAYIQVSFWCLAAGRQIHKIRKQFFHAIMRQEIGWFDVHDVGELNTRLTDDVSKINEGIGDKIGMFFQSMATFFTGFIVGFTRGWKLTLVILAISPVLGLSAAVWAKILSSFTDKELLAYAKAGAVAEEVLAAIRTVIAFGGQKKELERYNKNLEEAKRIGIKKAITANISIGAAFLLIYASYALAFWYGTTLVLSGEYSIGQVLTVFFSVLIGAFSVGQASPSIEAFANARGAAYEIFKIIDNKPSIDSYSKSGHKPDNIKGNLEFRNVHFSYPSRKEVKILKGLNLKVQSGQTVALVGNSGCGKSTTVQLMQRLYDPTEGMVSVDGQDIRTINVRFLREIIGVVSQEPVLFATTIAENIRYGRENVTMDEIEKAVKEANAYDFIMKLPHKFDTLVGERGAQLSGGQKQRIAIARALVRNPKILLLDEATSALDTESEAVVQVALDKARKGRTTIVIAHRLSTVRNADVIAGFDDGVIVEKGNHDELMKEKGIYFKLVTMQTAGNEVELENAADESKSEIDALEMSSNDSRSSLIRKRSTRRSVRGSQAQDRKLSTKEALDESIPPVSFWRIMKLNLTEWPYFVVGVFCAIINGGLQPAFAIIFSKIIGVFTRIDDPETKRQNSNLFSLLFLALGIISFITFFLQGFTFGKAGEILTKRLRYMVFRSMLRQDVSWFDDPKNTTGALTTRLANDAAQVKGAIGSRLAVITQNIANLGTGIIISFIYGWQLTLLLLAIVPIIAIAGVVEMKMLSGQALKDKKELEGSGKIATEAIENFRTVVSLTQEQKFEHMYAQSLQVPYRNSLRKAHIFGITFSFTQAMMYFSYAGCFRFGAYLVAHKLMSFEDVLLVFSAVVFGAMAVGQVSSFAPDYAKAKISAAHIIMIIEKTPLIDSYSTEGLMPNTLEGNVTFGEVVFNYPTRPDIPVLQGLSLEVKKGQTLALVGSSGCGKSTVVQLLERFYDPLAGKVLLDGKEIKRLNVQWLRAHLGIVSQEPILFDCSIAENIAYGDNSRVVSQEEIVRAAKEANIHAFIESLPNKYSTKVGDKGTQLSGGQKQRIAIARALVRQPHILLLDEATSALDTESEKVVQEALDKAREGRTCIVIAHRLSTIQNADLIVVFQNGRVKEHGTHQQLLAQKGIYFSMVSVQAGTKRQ", "assay": "P-gp/MDR1 transport", "format": "in vitro ADME"}, "[6]": {"assay": "In vivo pharmacokinetics in mice", "details": "mouse, 1 mg/kg IM", "procedure": "(A) Three mice each were administered 1 mg/kg agonist IV, IP, or IM. Graphs are mean plasma concentration for each administration route. (B) Results for individual mice were administered 1 mg/kg indicated agonist IM."}, "[7]": {"system": "Mfn1/Mfn2 double null MEFs", "assay": "Mitochondrial elongation in Mfn1/Mfn2 double null MEFs", "format": "cell-based, mouse", "from_the_text": "A cultured murine embryonic fibroblast assay system was used in which mitochondrial elongation (an increase in aspect ratio) reflects enhanced mitochondrial fusion."}, "[8]": {"system": "MFN2 Asp^378 and Ala^378 mutants", "assay": "Mitochondrial fusion with MFN2 Ser378 mutants (Asp378, Ala378)", "format": "cell-based, human"}, "MFN2 HR2": {"biological_target": "T1, MFN2 HR2 (Homo sapiens, UniProt O95140)", "T1 construct": "host or cells: synthetic peptide (note in the listing); immobilised on Ni-NTA resin", "T1 sequence (O95140 with tags, fused parts or gaps limits assumed)": "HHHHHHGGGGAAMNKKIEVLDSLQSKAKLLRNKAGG", "assay": "HR1 peptide-HR2 target binding assay", "details": "FITC minipeptide 374-384 at HR2 binding site", "from_the_text": "The Mfn-derived fusion-promoting and -inhibiting mini-peptides (simulated to obtain the chemical Mfn agonists in TABLE 1 and TABLE 2) were modified from amino acid heptad repeats (HR) in the HR1 domain and predicted to interact with their counterparts in the carboxyl terminus HR2 domain within the Mfn stalk region (see e.g., FIG. 1, top panel). A high-throughput binding assay was designed whereby the target HR2 peptide sequences, modified to include amino terminal 6×His tags and Gly linkers, were bonded to Ni-chelate resin (20 μg/ml) and used as immobilized “receptor” for amino-FITC-tagged Mfn2 374-384 (agonist ligand) in which the Ser analogous to Ser378 was replaced with Asp to confer the negative charge essential for activity. For antagonist studies the ligand was amino-FITC-tagged Mfn2 406-418. The FITC peptide ligands are suspended at 1 mM in 30% DMSO, 70% water (to minimize spontaneous aggregation) and diluted into binding buffer (de-ionized water) to a final concentration of 25 μM in the presence or absence of competing compound. Dose-dependent loss of resin-bound FITC signal (485 nm excitation/538 nm emission) measured in a 96 well spectrofluorometer represents binding of compound to its HR2 target (see e.g., FIG. 10, FIG. 11). Either the ligand peptide or the receptor peptide can be modified to represent mutations, variations, or posttranslational modifications of Mfn2. […]\nTarget HR2 peptide sequence modified to include amino terminal 6×His tags and Gly linkers, were bonded to Ni-NTA resin (4.4 μg/ml) (Quiagen) and used as immobilized “receptor” for amino-FITC-tagged Mfn2 374-384 (ligand) in which the Ser analogous to Ser378 was replaced with Asp to confer the negative charge essential for activity. […] Resin-bound FITC signal (485 nm excitation/538 nm emission) measured in a 96 well spectrofluorometer (Spectramax M5e, Molecular Devices) represented binding to HR2 target. Competition binding isotherms were plotted and IC50 values calculated using Prism 7 (GraphPad)."}},
  "note": "* marks the point of attachment. FITC = O=C1OC2(c3ccc(O)cc3Oc3cc(O)ccc32)c2ccc(NC(=S)*)cc21",
  "data": [
    {"compound": "Cn1c(SCC(=O)Nc2sc3c(c2C(N)=O)CCC3)nnc1-c1ccccc1", "note": "[1-B1, 2-{2-[(4-methyl-5-phenyl-4H-1,2,4-triazol-3-yl]sulfanyl]acetamido}-4H,5H,6H-cyclopenta[b]thiophene-3-carboxamide]", "values": [
      {"measurement": "Fusogenic activity", "setting": "Mfn2 null MEFs", "result": "more potent"},
      {"measurement": "% long compare to B", "setting": "Mfn2 null MEFs", "result": 107, "unit": "%"},
      {"measurement": "Resistance to liver microsomal degradation vs Cpd B", "setting": "[1]", "result": "greater resistance to liver microsomal degradation"}
    ]},
    {"compound": "CCn1c(SCC(=O)Nc2sc3c(c2C(N)=O)CCC3)nnc1C1CC1", "note": "[1-G11, 2-{2-[(5-cyclopropyl-4-ethyl-4H-1,2,4-triazol-3-yl)sulfanyl]acetamido}-4H,5H,6H-cyclopenta[b]thiophene-3-carboxamide]", "values": [
      {"measurement": "Fusogenic activity", "setting": "Mfn2 null MEFs", "result": "more potent"},
      {"measurement": "% long compare to B", "setting": "Mfn2 null MEFs", "result": 99, "unit": "%"},
      {"measurement": "Resistance to liver microsomal degradation vs Cpd B", "setting": "[1]", "result": "greater resistance to liver microsomal degradation"}
    ]},
    {"compound": "Cn1c(CCCNC(=O)NC2CCOCC2)nnc1C1CC1", "note": "[Mitolityn-6, 1-(3-(5-cyclopropyl-4-methyl-4H-1,2,4-triazol-3-yl)propyl)-3-(tetrahydro-2H-pyran-4-yl)urea]", "values": [
      {"measurement": "Fusogenic activity", "setting": "Mfn2 null MEFs", "result": "highest potency"},
      {"measurement": "Plasma protein binding", "setting": "[2]", "result": "low plasma protein binding"},
      {"measurement": "Liver microsome stability", "setting": "[3]", "result": "stability in the liver microsome assay"}
    ]},
    {"compound": "Cc1cc(NC(=O)C(C)SCC(=O)Nc2ccc(NC(C)c3ccccc3)cc2)no1", "note": "(stereo not shown) [N-(5-methyl-1,2-oxazol-3-yl)-2-{[({4-[(1-phenylethyl)amino]phenyl}carbamoyl)methyl]sulfanyl}propanamide]", "values": [
      {"measurement": "Solubility in DMSO at required concentration", "setting": "[4]", "result": "Insol- uble"}
    ]},
    {"compound": "CC(Sc1nc(C2CC2)nc2c1c(=O)[nH]c(=O)n2C1CC1)C(=O)NCC1CCCCC1", "note": "(stereo not shown) [N-(cyclohexylmethyl)-2-({2,8-dicyclopropyl-5,7-dioxo-5H,6H,7H,8H-pyrimido[4,5-d][1,3]diazin-4-yl}sulfanyl)propanamide]", "values": [
      {"measurement": "Solubility in DMSO at required concentration", "setting": "[4]", "result": "Insol- uble"}
    ]},
    {"compound": "Cc1ccc(SC(C)C(=O)Nc2ccc(NS(=O)(=O)c3ccc4c(c3)OCCCO4)cc2)cc1", "note": "(stereo not shown) [N-[4-(3,4-dihydro-2H-1,5-benzodioxepine-7-sulfonamido)phenyl]-2-[(4-methylphenyl)sulfanyl]propanamide]", "values": [
      {"measurement": "Solubility in DMSO at required concentration", "setting": "[4]", "result": "Insol- uble"}
    ]},
    {"compound": "CCc1nnc(SC(CC)C(=O)N(CC)c2cccc(C)c2)c2cc3occc3n12", "note": "(stereo not shown) [N-ethyl-2-({12-ethyl-5-oxa-1,10,11-triazatricyclo[6.4.0.0^2,6]dodeca-2(6),3,7,9,11-pentaen-9-yl}sulfanyl)-N-(3-methylphenyl)butanamide]", "values": [
      {"measurement": "Solubility in DMSO at required concentration", "setting": "[4]", "result": "Insol- uble"}
    ]},
    {"compound": "CC1CCCCC1NC(=O)NCCCc1nnc(C2CC2)n1-c1ccccc1", "note": "(stereo not shown) [Regeneurin-C, 1-(3-(5-cyclopropyl-4-phenyl-4H-1,2,4-triazol-3-yl)propyl)-3-(2-methylcyclohexyl)urea]", "values": [
      {"measurement": "Passive diffusion across lipid-infused artificial membrane (PAMPA, words)", "setting": "[5]", "result": "excellent passive diffusion"},
      {"measurement": "P-gp mediated transport", "setting": "P-gp/MDR1", "result": "actively transported by P-gp/MDR1"},
      {"measurement": "total plasma drug concentration 2 hours after IM administration", "setting": "[6]", "result": "undetectable"}
    ]},
    {"compound": "CC1CCCCC1NC(=O)NCCSCc1ccccc1", "note": "(stereo not shown) [compound A, 1-[2-(benzylsulfanyl)ethyl]-3-(2-methylcyclohexyl)urea]", "values": [
      {"measurement": "EC50", "setting": "Mfn2 null MEFs; Mus musculus, increase in mitochondrial aspect ratio", "result": "100 to 200", "unit": "nM"},
      {"measurement": "Fusogenic activity", "setting": "Mfn2 null MEFs", "result": "induced mitochondrial elongation"},
      {"measurement": "Mitochondrial elongation in absence of both mitofusins", "setting": "[7]", "result": "did not occur in the absence of both of their mitofusin targets"},
      {"measurement": "Selectivity of fusogenic effect for phosphomimic Asp378 vs nonphosphorylatable Ala378 MFN2", "setting": "[8]", "result": "specific for the Asp^378 mutant of MFN2"}
    ]},
    {"compound": "Ala^378 minipeptide: \"(NH3) FITC-GGGG-AVRGIMDALHMAAR-GG (COOH) (FITC labeled Ala peptide) (SEQ ID NO: 28)\" ({FITC}-GGGGAVRGIMDALHMAARGG-OH)", "values": [
      {"measurement": "Binding to / competition at HR2 target", "setting": "MFN2 HR2", "result": "did not"}
    ]},
    {"compound": "Ser^378 minipeptide: \"(NH3) FITC-GGGG-AVRGIMDSLHMAAR-GG (COOH) (FITC labeled Ser peptide) (SEQ ID NO: 26)\" ({FITC}-GGGGAVRGIMDSLHMAARGG-OH)", "values": [
      {"measurement": "Binding to / competition at HR2 target", "setting": "MFN2 HR2", "result": "did not"}
    ]}
  ]
}
